Source: patent US4233445A, “7-(Substituted)-7H-pyrrolo[3.2-F]-quinazoline-1,3-diamines” (American Home Products Corporation, priority 1979, dated 1980)
In brackets after ≈: the same amount, converted by molar mass.

Key:
[1] = tested on: S. aureus Smith; test: In vitro antibacterial activity (MIC), S. aureus Smith; format: cell-based; details: agar dilution, 18 hours at 35° C.
Experimental: (§1) The compounds have shown activity in vitro against one or more of the following strains of bacteria: S. aureus Smith, S. aureus 53-180, N. catarrhalis 8193, E. coli 9637, S. paratyphi 11737, K. pneumoniae 10031, or P. vulgaris 6896.
(§2) A stock solution or suspension of the test compound at a concentration of 2500 μg/ml. is prepared utilizing a suitable solvent or medium such as aqueous sodium hydroxide, aqueous lactic acid, methyl cellosolve, dimethylsulfoxide, dimethylacetamide, ethylene glycol, dimethylformamide, formamide, propylene glycol, acetone or methanol. Two-fold dilutions are made by adding appropriate amounts of sterile water to the solution or suspension of the test substance. One ml. quantities of each dilution are incorporated into Wellcotest Sensitivity Test Agar fortified with 5% hemolyzed horse blood (9 ml. vol.) in sterile Petri dishes to give plates containing varying concentrations of the test compound. The hardened surfaces of each plate are incubated with the test organism, and the plates are incubated for 18 hours at 35° C.

[2] = tested on: S. aureus 53-180; test: In vitro antibacterial activity (MIC), S. aureus 53-180; format: cell-based; details: agar dilution, 18 hours at 35° C.
Experimental: as §1, §2

[3] = tested on: N. catarrhalis 8193; test: In vitro antibacterial activity (MIC), N. catarrhalis 8193; format: cell-based; details: agar dilution, 18 hours at 35° C.
Experimental: as §1, §2

[4] = tested on: E. coli 9637; test: In vitro antibacterial activity (MIC), E. coli 9637; format: cell-based; details: agar dilution, 18 hours at 35° C.
Experimental: as §1, §2

[5] = tested on: S. paratyphi 11737; test: In vitro antibacterial activity (MIC), S. paratyphi 11737; format: cell-based; details: agar dilution, 18 hours at 35° C.
Experimental: as §1, §2

[6] = tested on: K. pneumoniae 10031; test: In vitro antibacterial activity (MIC), K. pneumoniae 10031; format: cell-based; details: agar dilution, 18 hours at 35° C.
Experimental: as §1, §2

[7] = tested on: P. vulgaris 6896; test: In vitro antibacterial activity (MIC), P. vulgaris 6896; format: cell-based; details: agar dilution, 18 hours at 35° C.
Experimental: as §1, §2

[8] = tested on: Escherichia coli (E-2); test: In vivo antibacterial synergism (mouse), Escherichia coli (E-2); set-up: species or system Mice (male, CD-1 strain); details: p.o., at time of infection, Cpd. dose in combination with SM, 20160 min
Experimental: (§3) The test agent is weighed, suspended in 0.5% aqueous carboxymethyl cellulose, hemogenized (glass tissue grinder) and diluted according to the design of the experiment. Mice (male, 18±1 g., CD-1 strain) are pre-weighed, pooled, infected at random intraperitoneally with a 0.5 ml. standardized suspension (LD95 ±5%) of the bacterial organism in 5% gastric mucin and treated at random with single doses of the test agents either at the time of infection or six hours after infecting. The treated groups consist of ten mice per dosage level. Deaths are recorded daily for 14 days and the PD50 (mice are treated at time of infection) and CD50 (mice are treated six hours after infecting) values are calculated by the method of Reed and Muench [Amer. J. Hyg., 27, (1938)].

[9] = tested on: Escherichia coli (E-3); test: In vivo antibacterial synergism (mouse), Escherichia coli (E-3); set-up: species or system Mice (male, CD-1 strain); details: p.o., at time of infection, Cpd. dose in combination with SM, 20160 min
Experimental: as §3

[10] = tested on: Staphylococcus aureus CHP; test: In vivo antibacterial synergism (mouse), Staphylococcus aureus CHP; set-up: species or system Mice (male, CD-1 strain); details: p.o., at time of infection, Cpd. dose in combination with SM, 20160 min
Experimental: as §3

In the case of `CC(C)c1cccc(Cn2ccc3c4c(N)nc(N)nc4ccc32)c1` [Example 5], the “MIC (minimal inhibitory concentration)” value [1] is reported as 1.95 µg/mL (≈ 5.88 µM), the “MIC (minimal inhibitory concentration)” value [2] is reported as 0.488 µg/mL (≈ 1.47 µM) and the “MIC (minimal inhibitory concentration)” value [3] is reported as 3.9 µg/mL (≈ 11.8 µM). For the same compound, the “MIC (minimal inhibitory concentration)” value [4] was 7.81 µg/mL (≈ 23.6 µM), the “MIC (minimal inhibitory concentration)” value [5] was 31.3 µg/mL (≈ 94.4 µM) and the “MIC (minimal inhibitory concentration)” value [6] was 0.244 µg/mL (≈ 0.736 µM). For the same compound, the “MIC (minimal inhibitory concentration)” value [7] was 62.5 µg/mL (≈ 189 µM).

For `COC(=O)c1ccc(Cn2ccc3c4c(N)nc(N)nc4ccc32)cc1` [Example 8], the MIC ([1]; Staphylococcus aureus, read-out: MIC (minimal inhibitory concentration)) was 31.5 µg/mL (≈ 90.7 µM).

With `Nc1nc(N)c2c(ccc3c2ccn3-c2ccncc2)n1` [Example 10, 7-(4-Pyridinyl)-7H-pyrrolo-[3,2-f]quinazoline-1,3-diamine] the “PD50, SM/Cpd. (Cpd. component)” value [8] was 1.20 mg. per kg, the “PD50, SM/Cpd. (Cpd. component)” value [9] was 6.25 mg. per kg and the “PD50, SM/Cpd. (Cpd. component)” value [10] was 7.28 mg. per kg.
